Test results taken from patent US20250099535A1, “GEPOTIDACIN AND VANCOMYCIN FOR USE IN THE TREATMENT OF AN INFECTION CAUSED BY STAPHYLOCOCCUS SAPROPHYTICUS” (GlaxoSmithKline Intellectual Property Development Limited, priority 2022, published 2025).
Converted amounts (≈) assume the structure as drawn. Like-named read-outs stand apart in the source and are kept apart here.

Assays:
Format in all cases: cell-based
Enterococcus faecalis = test: Baseline broth microdilution MIC (CLSI M07); conditions: for MIC: Enterococcus faecalis
Method: (§1) MIC values were determined in triplicate by Clinical and Laboratory Standards Institute (CLSI) […] (2018) reference broth microdilution (BMD) using cation adjusted Mueller Hinton broth (CAMHB) to determine a consensus median baseline MIC value for each isolate and compound. As required by CLSI M100 (2021), quality control (QC) strains Escherichia coli ATCC 25922, Pseudomonas aeruginosa ATCC 27853, Staphylococcus aureus 29213, and Enterococcus faecalis ATCC 29212 were tested concomitantly with the clinical isolates. (QC data not shown).

[1] = system: Staphylococcus saprophyticus; test: Baseline broth microdilution MIC (CLSI M07)
Method: as §1

[2] = system: Staphylococcus saprophyticus; test: Time-kill kinetic assay; conditions: 1× MIC, 5 S. saprophyticus isolates
Method: CAMHB was used for the follow-up time-kill kinetic studies. Each organism was tested in media containing either compound alone, or both, at ½×, ¼×, and 1× their respective MICs. Time-kill concentration tubes were sampled at time 0 hours (T0), T2, T4, T8, and T24. Samples were serially diluted ten-fold up to 8 times in tubes with […] of a 0.85% saline solution. A volume of 0.1 mL was then plated onto tryptic-soy agar with 5% sheep blood from the original sample and subsequent dilutions. Plates were incubated for 24 hours at 35° C. before quantifying the viable cell count for each tube at the specified times (T0-T24).
As described in the CLSI M26-A manual, bactericidal activity was defined as a 3-log10 decrease in CFU/mL below the starting inoculum that was maintained for 24 hours. […] The number of surviving organisms in the presence of the combination was required to be ≥2 log10 CFU/mL below the starting inocula and at least one of the drugs should not affect the growth curve of the tested organism.

Question: With CN[C@H](CC(C)C)C(=O)N[C@H]1C(=O)N[C@@H](CC(N)=O)C(=O)N[C@H]2C(=O)N[C@H]3C(=O)N[C@H](C(=O)N[C@H](C(=O)O)c4cc(O)cc(O)c4-c4cc3ccc4O)[C@H](O)c3ccc(c(Cl)c3)Oc3cc2cc(c3O[C@@H]2O[C@H](CO)[C@@H](O)[C@H](O)[C@H]2O[C@H]2C[C@](C)(N)[C@H](O)[C@H](C)O2)Oc2ccc(cc2Cl)[C@H]1O [vancomycin] as the molecule, how does the MIC (Enterococcus faecalis; read-out: VANC MIC) read?
Answer: 1 µg/mL (≈ 0.69 µM)

Question: What about the “VANC MIC” value (Enterococcus faecalis; isolate E. faecalis 1103597, CAMHB) of the same molecule?
Answer: 1 µg/mL

Question: And the “VANC MIC” value (Enterococcus faecalis; isolate E. faecalis 1103850, CAMHB)?
Answer: 1 µg/mL

Question: And the “VANC MIC” value (Enterococcus faecalis; isolate E. faecalis 1111210, CAMHB)?
Answer: 1 µg/mL

Question: And the “VANC MIC” value (Enterococcus faecalis; isolate E. faecalis 1124756, CAMHB)?
Answer: 1 µg/mL

Question: What about the MIC ([1]; read-out: VANC MIC, isolate S. saprophyticus 1106006, CAMHB) of the same molecule?
Answer: 0.5 µg/mL (≈ 0.345 µM)

Question: What about the MIC ([1]; read-out: VANC MIC, isolate S. saprophyticus 1113726, CAMHB) of the same molecule?
Answer: 1 µg/mL (≈ 0.69 µM)

Question: And the MIC ([1]; read-out: VANC MIC, isolate S. saprophyticus 1115244, CAMHB)?
Answer: 1 µg/mL (≈ 0.69 µM)

Question: And the MIC ([1]; read-out: VANC MIC, isolate S. saprophyticus 1125669, CAMHB)?
Answer: 1 µg/mL (≈ 0.69 µM)

Question: And the MIC ([1]; read-out: VANC MIC, isolate S. saprophyticus 1129086, CAMHB)?
Answer: 0.5 µg/mL (≈ 0.345 µM)

Question: And the “Bactericidal activity (3-log10 decrease in CFU/mL below the starting inoculum maintained for 24 hours)” value [2]?
Answer: not achieved

Question: What does the source list for O=c1ccc2ncc(=O)n3c2n1C[C@H]3CN1CCC(NCc2cc3c(cn2)OCCC3)CC1 [gepotidacin, (2R)-2-({4-[(3,4-dihydro-2H-pyrano[2,3-c]pyridin-6-ylmethyl)amino]-1-piperidinyl}methyl)-1,2-dihydro-3H,8H-2a,5,8a-triazaacenaphthylene-3,8-dione]?
Answer: MIC (Enterococcus faecalis; isolate E. faecalis 1097863, CAMHB, read-out: GEP MIC): 1 µg/mL (≈ 2.23 µM); MIC (Enterococcus faecalis; isolate E. faecalis 1103597, CAMHB, read-out: GEP MIC): 0.5 µg/mL (≈ 1.11 µM); MIC (Enterococcus faecalis; isolate E. faecalis 1103850, CAMHB, read-out: GEP MIC): 0.5 µg/mL (≈ 1.11 µM); MIC (Enterococcus faecalis; isolate E. faecalis 1111210, CAMHB, read-out: GEP MIC): 1 µg/mL (≈ 2.23 µM); MIC (Enterococcus faecalis; isolate E. faecalis 1124756, CAMHB, read-out: GEP MIC): 0.5 µg/mL (≈ 1.11 µM); MIC ([1]; isolate S. saprophyticus 1106006, CAMHB, read-out: GEP MIC): 0.25 µg/mL (≈ 0.557 µM); MIC ([1]; isolate S. saprophyticus 1113726, CAMHB, read-out: GEP MIC): 0.12 µg/mL (≈ 0.268 µM); MIC ([1]; isolate S. saprophyticus 1115244, CAMHB, read-out: GEP MIC): 0.12 µg/mL (≈ 0.268 µM); MIC ([1]; isolate S. saprophyticus 1125669, CAMHB, read-out: GEP MIC): 0.25 µg/mL (≈ 0.557 µM); MIC ([1]; isolate S. saprophyticus 1129086, CAMHB, read-out: GEP MIC): 0.25 µg/mL (≈ 0.557 µM); Bactericidal activity (3-log10 decrease in CFU/mL below the starting inoculum maintained for 24 hours) [2]: not achieved
